Data from paper PMC10518717, “High-Throughput Screening and Proteomic Characterization of Compounds Targeting Myeloid-Derived Suppressor Cells” (Molecular & Cellular Proteomics : MCP, 2023).

How the values were obtained:
NUP-MDSC = assay: Global proteome expression profiling of compound-treated NUP-MDSC (TMT LC-MS/MS); assay type: cell-based, mouse; conditions: 72 h; for log2 FC ENT_300/DMSO: 300 nM
Method: After treatments, medium was removed, cells were washed twice with PBS, and the cell pellets were further subjected to proteomic sample preparation.
The cell pellet was reconstituted in 2% SDS in 50 mM Tris–HCl pH 7.5 and lysed by heating to 95 °C for 10 min. One microliter of 100% TFA was added to each sample to hydrolyze DNA, and the pH was subsequently adjusted to 8.5 with 3 M Tris solution. Disulfide bonds were reduced with 10 mM DTT for 45 min at 37 °C, followed by alkylation of cysteines with 55 mM CAA for 30 min at room temperature. Prior to tryptic digestion, the detergent was removed from lysates by SP3 cleanup on an Agilent BRAVO system (Agilent Technologies), following the protocol first described by Hughes et al. ([34]). Briefly, lysate containing 200 μg of protein was mixed with SP3 beads, and proteins were precipitated onto a 50:50 mixture of Sera-Mag Speed Bead types A and B (Thermo Fisher Scientific) in 58% acetonitrile. Beads were washed three times with 80% ethanol in water and once with acetonitrile. Tryptic digest was performed in 100 μl of digestion buffer (2 mM CaCl2 in 25 mM Hepes, pH 8.5) with a 1:50 enzyme-to-protein ratio. Bead-precipitated proteins were digested at 37 °C overnight. On the next day, the supernatant of each sample was transferred to a new well and vacuum dried.
Dried peptides were reconstituted in water and labeled with the respective TMT10plex-labeling reagent as described previously ([35]) with a protein to tandem mass tag (TMT) reagent ratio of 1:2. Labeled samples were pooled, vacuum dried, and reconstituted in 0.1% formic acid (FA) prior to desalting on SepPAC50 columns (waters corp.). Peptides were fractionated using a Dionex Ultra 3000 HPLC system with a Waters XBridge BEH130 C18 3.5 um 2.1 × 250 mm column as described previously ([36]). Ninety-six fractions were collected and pooled to 48. For the full proteome analysis, one fifth of each fraction was transferred to a new 96-well plate and both plates were vacuum dried. For the phosphopeptide analysis, dried peptides were reconstituted in 55 μl 0.1% TFA in 30% ACN, pooled from 48 to 12 fractions, and mixed with 70 μl priming buffer (0.1% TFA, 100% ACN). Phosphopeptides were enriched from each of the 12 fractions using Fe(III)-IMAC-NTA cartridges on the AssayMAP BRAVO (Agilent Technologies) platform as described previously ([36]). Phosphopeptides were eluted with 60 μl 1% ammonia, vacuum dried, and stored at −20 °C prior to LC-MS/MS analysis.
The Fusion Lumos was operated in data-dependent acquisition and positive ionization mode. Samples were measured employing a MS3 method. In brief, full scan MS1 spectra were recorded in the orbitrap (OT) from 360 to 1560 m/z at 60,000 resolution using an automatic gain control (AGC) target value of 4e5 charges and a maximum injection time (maxIT) of 50 ms. Iontrap-MS2 spectra for peptide identification were acquired using higher energy collision dissociation (HCD) fragmentation with 32% normalized collision energy (NCE), an isolation window of 0.6 m/z, and an AGC target value of 1.2e4 charges. To obtain quantitative information on TMT reporter ions, each peptide precursor was fragmented again as for MS2 analysis followed by synchronous selection of the up to eight most intense peptide fragments in the iontrap ([37]) and further fragmentation via HCD using a NCE of 55%. The MS3 scan was recorded in the OT at 50,000 resolution (scan range 100–1000 m/z, isolation window of 1.2 m/z, AGC of 1e5 charges, maxIT of 86 ms). The cycle time was 1.2 s, and the dynamic exclusion lasted for 50 s.
Peptide, protein, and phosphorylation site identification and quantification were performed with MaxQuant software (v. 1.6.3.3, https://www.maxquant.org/) with standard settings for reporter ion MS3 unless described otherwise ([39]). Isotope impurities of the TMT lot were specified to allow MaxQuant the automated correction of TMT intensities. […]

NUP-MDSC cell lysate [1] = target: T1, NUP-MDSC cell lysate (Mus musculus, UniProt G5E8Z3); assay: Chemoproteomic competition pulldown assay (iCor/iEnt affinity matrix), proteome-wide; assay type: binding; conditions: protein 2310050C09Rik (G5E8Z3)
T1 construct: endogenous in cells; host or cells: mouse NUP-MDSC (lysate)
From the text: (§1) Targets of the inhibitors were annotated manually.

NUP-MDSC cell lysate [2] = target: T2, NUP-MDSC cell lysate (Mus musculus, UniProt Q8WUR0); assay: as above; assay type: binding; conditions: protein 1600014C10Rik (Protein C19orf12 homolog)
T2 construct: endogenous in cells; host or cells: mouse NUP-MDSC (lysate)
T2 sequence (Q8WUR0 1-141): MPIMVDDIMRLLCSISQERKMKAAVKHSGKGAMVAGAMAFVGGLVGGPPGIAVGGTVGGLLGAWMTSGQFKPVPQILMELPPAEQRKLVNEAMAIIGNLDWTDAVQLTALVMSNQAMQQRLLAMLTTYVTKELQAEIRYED
From the text: as §1

NUP-MDSC cell lysate [3] = assay: as above; assay type: binding, mouse; conditions: NUP-MDSC lysate; iCor and iEnt
From the text: as §1

[4] = tested on: HDAC1/2 and the CoREST complex; conditions: NUP-MDSC lysate; competition with iCor pulldown
Method: In vitro–differentiated NUP-MDSC were harvested, washed twice with PBS, and cell pellets were stored at −80 °C. For lysis, the pellets were slowly thawed at 20 °C and mixed with lysis buffer (0.8% Igepal, 50 mM Tris–HCl pH 7.5, 5% glycerol, 1.5 mM MgCl2, 150 mM NaCl, 1 mM Na3VO4, 25 mM NaF, 1 mM DTT, and supplemented with protease inhibitors (SigmaFast, Sigma) and phosphatase inhibitors (prepared in-house according to phosphatase inhibitor cocktail 1, 2, and 3 from Sigma-Aldrich)). Before usage, the cell lysates were cleared from debris by ultracentrifugation (52,000×g for 20 min at 4 °C); protein concentration was determined by Bradford assay. […]
Peptides were analyzed via LC-MS/MS on a Dionex Ultimate3000 nano HPLC coupled to an Orbitrap Fusion Lumos mass spectrometer (Thermo Fisher Scientific). […]
The mass spectrometer was operated in data-dependent mode, automatically switching between MS1 and MS2 spectra. […] Up to 12 peptide precursors were isolated (isolation width of 1.2 Th, maxIT of 75 ms, AGC value of 2e5), fragmented by HCD using 30% NCE, and analyzed in the OT at a resolution of 15,000. […]
Protein identification and quantification was performed using MaxQuant (v 1.6.1.0) by searching the LC-MS/MS data against all canonical protein sequences as annotated in the Swissprot reference database (v03.12.15, 20,193 entries, downloaded 22.03.2016) using the embedded search engine Andromeda. […]

T1 sequence (G5E8Z3 1-280): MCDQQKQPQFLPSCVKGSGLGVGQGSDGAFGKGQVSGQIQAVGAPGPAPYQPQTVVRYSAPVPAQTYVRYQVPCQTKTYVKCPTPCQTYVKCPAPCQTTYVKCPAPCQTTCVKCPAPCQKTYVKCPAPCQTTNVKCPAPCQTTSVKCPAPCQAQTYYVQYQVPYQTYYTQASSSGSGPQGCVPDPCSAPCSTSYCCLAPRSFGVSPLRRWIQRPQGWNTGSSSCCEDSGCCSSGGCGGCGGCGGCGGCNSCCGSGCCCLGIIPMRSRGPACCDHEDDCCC

Intensity 3nM (NUP-MDSC cell lysate [1]; Entinostat 3nM): 4673000 | LFQ intensity 3nM (NUP-MDSC cell lysate [1]; Entinostat 3nM): 0 | Intensity 10nM (NUP-MDSC cell lysate [1]; Entinostat 10nM): 39076000 | LFQ intensity 10nM (NUP-MDSC cell lysate [1]; Entinostat 10nM): 48940000 | Intensity 30nM (NUP-MDSC cell lysate [1]; Entinostat 30nM): 0 | LFQ intensity 30nM (NUP-MDSC cell lysate [1]; Entinostat 30nM): 0 | Intensity 100nM (NUP-MDSC cell lysate [1]; Entinostat 100nM): 0 | LFQ intensity 100nM (NUP-MDSC cell lysate [1]; Entinostat 100nM): 0 | Intensity 300nM (NUP-MDSC cell lysate [1]; Entinostat 300nM): 63615000 | LFQ intensity 300nM (NUP-MDSC cell lysate [1]; Entinostat 300nM): 92239000 | Intensity 1000nM (NUP-MDSC cell lysate [1]; Entinostat 1000nM): 0 | LFQ intensity 1000nM (NUP-MDSC cell lysate [1]; Entinostat 1000nM): 0 | Intensity 3000nM (NUP-MDSC cell lysate [1]; Entinostat 3000nM): 17259000 | LFQ intensity 3000nM (NUP-MDSC cell lysate [1]; Entinostat 3000nM): 18337000 | Intensity 30000nM (NUP-MDSC cell lysate [1]; Entinostat 30000nM): 37204000 | LFQ intensity 30000nM (NUP-MDSC cell lysate [1]; Entinostat 30000nM): 38240000 | Intensity 3nM (NUP-MDSC cell lysate [2]; Entinostat 3nM): 20883000 | LFQ intensity 3nM (NUP-MDSC cell lysate [2]; Entinostat 3nM): 42321000 | Intensity 10nM (NUP-MDSC cell lysate [2]; Entinostat 10nM): 34795000 | LFQ intensity 10nM (NUP-MDSC cell lysate [2]; Entinostat 10nM): 40587000 | Intensity 30nM (NUP-MDSC cell lysate [2]; Entinostat 30nM): 27408000 | LFQ intensity 30nM (NUP-MDSC cell lysate [2]; Entinostat 30nM): 39634000 | Intensity 100nM (NUP-MDSC cell lysate [2]; Entinostat 100nM): 29285000 | LFQ intensity 100nM (NUP-MDSC cell lysate [2]; Entinostat 100nM): 35458000 | Intensity 300nM (NUP-MDSC cell lysate [2]; Entinostat 300nM): 23203000 | LFQ intensity 300nM (NUP-MDSC cell lysate [2]; Entinostat 300nM): 36056000 | Intensity 1000nM (NUP-MDSC cell lysate [2]; Entinostat 1000nM): 28303000 | LFQ intensity 1000nM (NUP-MDSC cell lysate [2]; Entinostat 1000nM): 37293000 | Intensity 3000nM (NUP-MDSC cell lysate [2]; Entinostat 3000nM): 35943000 | LFQ intensity 3000nM (NUP-MDSC cell lysate [2]; Entinostat 3000nM): 42228000 | Intensity 30000nM (NUP-MDSC cell lysate [2]; Entinostat 30000nM): 27116000 | LFQ intensity 30000nM (NUP-MDSC cell lysate [2]; Entinostat 30000nM): 26320000
SMILES: Nc1ccccc1NC(=O)c1ccc(CNC(=O)OCc2cccnc2)cc1 [entinostat]
protein expression of Il1a, Il1b, and Il1rn (NUP-MDSC; 30 and 300 nM): dose-dependently upregulated | protein level of Cxcr3, Ccl9, and Ccr5 (NUP-MDSC; 30 and 300 nM, dose-dependent manner): increased | log2 FC ENT_300/DMSO (NUP-MDSC; protein Cask): -0.505 | log2 FC ENT_300/DMSO (NUP-MDSC; protein Hsf1): -0.1449 | log2 FC ENT_300/DMSO (NUP-MDSC; protein Inpp5j): 0.4672 | log2 FC ENT_300/DMSO (NUP-MDSC; protein Magohb;Magoh): 0.03399 | additional targets identified (NUP-MDSC cell lysate [3]): No additional targets | target affinity [4]: high affinities
